Measurements: US20220133872A1, “A MONOPHOSPHORYL LIPID-A LIPOSOME BASED CANCER VACCINE” (University of Florida Research Foundation, Inc., priority 2019, published 2022)
“Also recorded” adds a separate entry of the source.

System: NKT cells
Assay: NKT cells in blood, spleen and liver of vaccinated C57BL/6 mice (flow cytometry)
Assay type: in vivo
Conditions: vs untreated mice
Method: B16-F10 mouse melanoma cell line in C57/BL6 mice provides a syngeneic model of spontaneous highly metastatic tumor. As shown in the diagram of FIG. 13, three groups of mice were injected with B16 melanoma cell lines. Only one group received the GD3 based vaccine, the other groups were a control group and α-galactosylceramide (α-GalCer), a potent and specific activator of mouse and human iNKT cells. These C57BL/6 mice were vaccinated weekly for 4 weeks followed by a week of rest (see FIG. 13). Mice where then euthanized to collect, blood, liver, and spleen for evaluation of NKT cells. Liver lymphocytes were collected by making mono-cellular suspension of liver obtained after enzymatic digestion. Collected lymphocytes were stained for CD3, CD4, TCRβ, NK1.1, CD49b and dead cells. In these experiments untreated and α-galactosylceramide (α-GalCer) treated mice were used as controls. Tumor size and mass was only recorded.
One week post last vaccination, mice were euthanized as per IACUC protocol and Natural Killer T cells were evaluated in blood, spleen, and liver by staining the isolated cells with anti-CD45, CD3, CD4, TCRb, CD49b and NK1.1 antibodies. The stained cells were analyzed on BD Fortessa and FlowJo 10 v.

SMILES: CCCCCCCCCCCCCCCCCCCCCCCCCC(=O)N[C@@H](CO[C@H]1O[C@H](CO)[C@H](O)[C@H](O)[C@H]1O)[C@H](O)[C@H](O)CCCCCCCCCCCCCC [α-GalCer, α-galactosylceramide]
- NKT cells in the liver (liver, weekly x4, one week after last vaccination): increased; also recorded: accumulation
- NKT cells in spleen and blood (spleen and blood): no discernable differences
